Laboratory results: PMC10146558, “Highly Cytotoxic Copper(II) Mixed-Ligand Quinolinonato Complexes: Pharmacokinetic Properties and Interactions with Drug Metabolizing Cytochromes P450” (Pharmaceutics, 2023)
Several values for one entry are separate records, joined by “and”; a condition that tells them apart may be missing. Equal entries are not always repeated.

Columns and labels:
[1] = target: T1, CYP3A4 (Homo sapiens, UniProt P08684); assay: CYP3A4 activity (midazolam 1′-hydroxylation) in human liver microsomes; conditions: read-out: IC50 CYP3A4 (midazolam 1′-hydroxylation assay); human liver microsomes
Target sequence in this assay (P08684 2-503): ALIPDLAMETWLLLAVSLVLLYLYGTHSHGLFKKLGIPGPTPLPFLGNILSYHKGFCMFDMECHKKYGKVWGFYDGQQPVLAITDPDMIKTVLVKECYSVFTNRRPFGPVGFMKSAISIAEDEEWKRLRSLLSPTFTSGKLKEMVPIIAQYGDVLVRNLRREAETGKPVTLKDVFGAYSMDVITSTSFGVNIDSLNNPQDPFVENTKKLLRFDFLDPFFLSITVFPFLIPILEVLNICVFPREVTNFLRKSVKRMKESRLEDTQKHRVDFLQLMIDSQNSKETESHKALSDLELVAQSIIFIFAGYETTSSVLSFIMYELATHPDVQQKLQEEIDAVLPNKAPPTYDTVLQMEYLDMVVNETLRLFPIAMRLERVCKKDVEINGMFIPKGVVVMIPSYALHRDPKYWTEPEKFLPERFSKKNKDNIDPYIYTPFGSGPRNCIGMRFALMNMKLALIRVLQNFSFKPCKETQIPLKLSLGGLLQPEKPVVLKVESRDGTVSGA
Procedure: For each enzyme assay, the preliminary experiments to determine Michaelis constant (Km) and limiting velocity (Vmax) were performed to calculate the time of incubation (the specified time for which the reaction is still linear) and the values of substrate concentration (in the range corresponding to the value of Km).
The reaction mixtures were buffered by 0.1 M potassium phosphate buffer (pH 7.4) and contained a NADPH-generating system consisting of the isocitrate dehydrogenase (6 U/mL), NADP^+ (0.5 mM), isocitric acid (4 mM), and MgSO4 (5 mM). The final concentration levels of complexes were obtained by diluting a 10 mM solution with dimethyl sulfoxide (DMSO). It is known that DMSO can in some cases inhibit P450; the following measures were thus applied: (a) control samples containing organic solvent without the tested compounds were prepared and used as references; (b) DMSO levels were maintained below 0.1% to minimise the inhibition. Inhibition experiments were performed using five concentration levels of the tested compounds in the range of 10–100 µM. The maximum concentration was chosen so that in the case of inhibition, it would be possible to determine the inhibitory effect of the complexes and characterise them by determining the IC50 value. Additionally, an inhibitor-free control was used as a reference. Incubations were executed in two independent batches, and the samples were prepared and measured in triplicate at 37 °C. Analyses of the metabolites formed from the specific substrates were performed by HPLC using the Prominence system (Shimadzu, Kyoto, Japan) equipped with a LiChroCART 250-4 LiChrospher 100 RP-18 column, Chromolith® HighResolution RP-18 end-capped column (Merck, Darmstadt, Germany), or Kinetex Biphenyl column (Phenomenex, Torrace, CA, USA).
The apparent Ki values were determined by additional measurements using substrate concentrations corresponding to 1/2 Km, Km, 2 Km, and 4 Km in the case of inhibition. The type of model was selected on the basis of the Lineweaver–Burk and Dixon plots. The values of IC50 were obtained by analysing the plot of the percentage of activity remaining after inhibition versus the logarithm of the inhibitor concentration using the GraphPad Prism 6 software (La Jolla, CA, USA).

[2] = target: T2, human bactosomes CYP2A6 (Homo sapiens, UniProt P11509); assay: Isothermal titration calorimetry, bactosomes CYP2A6; type: binding; conditions: 25 °C; for n, CYP2A6B: ITC stoichiometry, pH 7.4; for Ka, CYP2A6B / ΔG, CYP2A6B / ΔH, CYP2A6B / ΔS, CYP2A6B / Kd: ITC, pH 7.4, 1% DMSO; for Kd: read-out: Kd, CYP2A6B
T2 construct: purchased BD Biosciences (Franklin Lakes, NJ, USA); host or cells: bacterial membranes ('bactosomes')
T2 sequence (P11509 1-494): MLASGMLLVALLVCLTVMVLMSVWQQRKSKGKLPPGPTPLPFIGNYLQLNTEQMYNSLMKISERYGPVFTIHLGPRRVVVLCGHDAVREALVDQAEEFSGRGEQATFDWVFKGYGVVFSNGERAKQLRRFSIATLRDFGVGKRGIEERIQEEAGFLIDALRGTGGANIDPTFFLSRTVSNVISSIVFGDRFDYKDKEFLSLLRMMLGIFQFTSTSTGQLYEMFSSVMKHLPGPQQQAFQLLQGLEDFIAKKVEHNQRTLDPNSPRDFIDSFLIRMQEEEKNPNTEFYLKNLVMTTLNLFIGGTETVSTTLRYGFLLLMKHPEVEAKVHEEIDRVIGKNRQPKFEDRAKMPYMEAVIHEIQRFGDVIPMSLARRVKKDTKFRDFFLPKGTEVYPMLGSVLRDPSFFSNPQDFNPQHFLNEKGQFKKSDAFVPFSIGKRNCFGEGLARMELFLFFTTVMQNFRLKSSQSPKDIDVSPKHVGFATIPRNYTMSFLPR
Procedure: (§1) The interactions of the compounds with selected forms of cytochrome P450, i.e., human bactosomes CYP1A2, CYP2A6, CYP3A4, and recombinant human CYP3A4, were studied using isothermal titration calorimetry (ITC). ITC experiments were performed at 25 °C with a Nano ITC Low Volume (TA Instruments, New Castle, DE, USA). During all measurements, 20 injections of 16µM of the studied compound (2.5 µL each) were titrated into 250 µL of protein (2 µM) with time intervals of 300 s and a stirring speed of 250 rpm. All ITC experiments were conducted with degassed buffered solutions (100 mM phosphate buffer, pH 7.4) in the presence of 1% DMSO. Control experiments included the titration of each complex solution into a buffer. The corrected data refer to experimental data after subtraction of the buffer control data from the compounds data. The resulting thermograms were analysed using the “Independent” model within the NanoAnalyze software (TA Instruments, New Castle, DE, USA).

[3] = Chemical stability (stability in PBS); type: physicochemical; conditions: 1 × PBS pH 7.4, 37 °C, 7.4 µM
Procedure: (§2) Pharmacological properties of the complexes 1 and 2, including stability in plasma, microsomal stability, binding to plasma proteins, and permeability through an artificial membrane, were tested under in vitro conditions and according to methods described in previous reports. Analysis of the samples was performed using Agilent RapidFire 300 High-Throughput Mass Spectrometry System (Agilent Technologies, Wakefield, MA, USA) with subsequent detection using the mass spectrometer Qtrap 5500 (AB Sciex, Concord, Toronto, ON, Canada), abbreviation RF-MS. The samples were aspirated directly from the plates into a 10 μL sample loop and passed through a C4 cartridge with solvent A (5% acetonitrile, 95% water, 0.1% formic acid) at a flow rate of 1.5 mL/min for 3 s. After the desalting step, analytes retained on the cartridge were eluted with solvent B (95% acetonitrile, 5% water, 0.1% formic acid) in the mass spectrometer at a flow rate of 0.4 mL/min for 5 s. The mass spectrometry of the samples was carried out using electrospray ionisation in the positive ion mode. Daughter ion peaks were identified using a multiple-reaction monitoring protocol.
(§3) The reaction was terminated by ice-cold methanol (chemical stability) or acetonitrile:methanol (2:1), and samples were left at −80 °C overnight (plasma stability). The solution was mixed and centrifuged (4000 rpm, 9 min, 4 °C). After lyophilization of supernatant, samples were dissolved in mobile phase with internal standard and analysed by RF/MS analysis.

[4] = system: plasma proteins; assay: Plasma protein binding (rapid equilibrium dialysis); type: in vitro ADME, human; conditions: 10 μM in 50% plasma, 37 °C, 4 h
Procedure: as §2, with “The mass spectrometry of the samples was carried out using electrospray ionisation in the positive ion mode. Daughter ion peaks were identified using a multiple-reaction monitoring protocol.” left out
The fraction bound value was determined using the semipermeable membrane that separates a protein-containing compartment (R chamber) from a protein-free compartment (W chamber) (Rapid Equilibrium Dialysis, Thermo Scientific™, Rockford, IL, USA). […] Samples were dissolved in mobile phase containing internal standard and analysed on the RF/MS.

[5] = target: T1, CYP3A4; assay: Isothermal titration calorimetry, recombinant human CYP3A4; type: binding; design: purchased Sigma-Aldrich (Prague, Czech Republic); conditions: recombinant human CYP3A4, 25 °C; for n, CYP3A4: ITC stoichiometry, pH 7.4; for Ka, CYP3A4 / Kd / ΔG, CYP3A4 / ΔH, CYP3A4 / ΔS, CYP3A4: ITC, pH 7.4, 1% DMSO
Procedure: as §1
Target sequence in this assay (P08684 whole entry): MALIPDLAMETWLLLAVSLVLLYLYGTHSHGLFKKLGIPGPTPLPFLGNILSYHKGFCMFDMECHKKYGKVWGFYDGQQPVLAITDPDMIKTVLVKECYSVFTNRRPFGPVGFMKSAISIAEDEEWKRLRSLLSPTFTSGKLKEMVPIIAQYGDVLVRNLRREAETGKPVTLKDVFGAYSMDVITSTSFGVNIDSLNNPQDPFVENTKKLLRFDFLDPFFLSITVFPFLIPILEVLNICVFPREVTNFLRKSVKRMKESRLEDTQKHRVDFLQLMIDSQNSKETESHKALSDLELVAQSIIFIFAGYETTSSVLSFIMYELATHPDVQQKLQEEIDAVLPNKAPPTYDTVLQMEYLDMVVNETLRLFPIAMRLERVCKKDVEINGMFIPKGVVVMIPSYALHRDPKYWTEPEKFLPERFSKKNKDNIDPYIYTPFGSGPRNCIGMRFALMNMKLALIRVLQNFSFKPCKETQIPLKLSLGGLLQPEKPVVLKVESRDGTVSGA

[6] = Stability in human plasma; type: in vitro ADME; conditions: 37 °C, 3.3 μM
Procedure: as §2, §3

[7] = system: CYP3A4/5; assay: CYP3A4/5 activity (testosterone 6β-hydroxylation) in human liver microsomes; conditions: for Type of inhibition, CYP3A4/5 (testosterone 6β-hydroxylation) / Ki: Dixon and Lineweaver–Burk plots; for IC50: read-out: IC50 CYP3A4/5 (testosterone 6β-hydroxylation assay), human liver microsomes; for Ki: read-out: Ki CYP3A4/5 (testosterone 6β-hydroxylation assay), substrate ½ Km to 4 Km
Procedure: For each enzyme assay, the preliminary experiments to determine Michaelis constant (Km) and limiting velocity (Vmax) were performed to calculate the time of incubation (the specified time for which the reaction is still linear) and the values of substrate concentration (in the range corresponding to the value of Km). The amount of human liver microsomes (HLM; expressed as the amount of CYP in pmol and the concentration of HLM protein in mg/mL in the reaction vessel) in the reaction was determined using previously established protocols [40].
The reaction mixtures were buffered by 0.1 M potassium phosphate buffer (pH 7.4) and contained a NADPH-generating system consisting of the isocitrate dehydrogenase (6 U/mL), NADP^+ (0.5 mM), isocitric acid (4 mM), and MgSO4 (5 mM). The final concentration levels of complexes were obtained by diluting a 10 mM solution with dimethyl sulfoxide (DMSO). It is known that DMSO can in some cases inhibit P450; the following measures were thus applied: (a) control samples containing organic solvent without the tested compounds were prepared and used as references; (b) DMSO levels were maintained below 0.1% to minimise the inhibition. Inhibition experiments were performed using five concentration levels of the tested compounds in the range of 10–100 µM. The maximum concentration was chosen so that in the case of inhibition, it would be possible to determine the inhibitory effect of the complexes and characterise them by determining the IC50 value. Additionally, an inhibitor-free control was used as a reference. Incubations were executed in two independent batches, and the samples were prepared and measured in triplicate at 37 °C.
The type of model was selected on the basis of the Lineweaver–Burk and Dixon plots. The values of IC50 were obtained by analysing the plot of the percentage of activity remaining after inhibition versus the logarithm of the inhibitor concentration using the GraphPad Prism 6 software (La Jolla, CA, USA).

Compound | IC50 [1] [µM] | n, CYP2A6B [2] | Ka, CYP2A6B [2] [M⁻¹] | ΔG, CYP2A6B [2] | ΔH, CYP2A6B [2] [kcal/mol] | ΔS, CYP2A6B [2] [J/mol.K] | Kd [2] [µM] | % Compound Remaining, Chemical Stability, 15 min [3] [%] | % Compound Remaining, Chemical Stability, 30 min [3] [%] | % Compound Remaining, Chemical Stability, 60 min [3] [%] | % Compound Remaining, Chemical Stability, 120 min [3] [%] | Plasma protein binding, % Fraction bound [4] | n, CYP3A4 [5] | Ka, CYP3A4 [5] [M⁻¹] | Kd [5] [µM] | ΔG, CYP3A4 [5] | ΔH, CYP3A4 [5] [kcal/mol] | ΔS, CYP3A4 [5] [J/mol.K] | % Compound Remaining, Plasma Stability, 15 min [6] [%] | % Compound Remaining, Plasma Stability, 30 min [6] [%] | other results
Cc1cc2cccnc2c2ncccc12.O.O=[N+]([O-])[O-].O=c1c([O-])c(-c2ccccc2)[nH]c2ccccc12.[Cu+2] [complex 1] | 28.8 ± 2.55 | 0.801 | 1.04e+06 | −40,050.9 J/mol | -7.603 | 27.64 | 0.962 | 99.6 ± 3.6 | 99.9 ± 1.5 | 97.8 ± 3.4 | 96.6 ± 3.4 | 95% and 95.1 ± 1.0% | 1.171 | 1.3e+07 | 0.0769 | −34,899.9 J/mol | -21.05 | −178.3 | 98.9 ± 2.5 | 94.0 ± 3.3 | % Compound Remaining, Plasma Stability, 60 min [6]: 94.2 ± 2.3%; % Compound Remaining, Plasma Stability, 120 min [6]: 91.2 ± 1.2%; Type of inhibition, CYP3A4/5 (testosterone 6β-hydroxylation) [7]: non-competitive; IC50 [7]: 2.46 µM; Ki [7]: 3.6 ± 0.67 µM
Cc1cc2cccnc2c2ncccc12.F[B-](F)(F)F.O.O=c1c([O-])c(-c2ccccc2)[nH]c2ccccc12.[Cu+2] [complex 2] | 33 ± 1.13 | 1.071 | 3.12e+06 | −37,070.9 J/mol | -5.507 | 47.06 | 0.321 | 99.6 ± 3.0 | 96.8 ± 2.4 | 94.0 ± 3.3 | 96.6 ± 2.4 | 93% and 92.9 ± 1.5% | 1.095 | 1.59e+07 | 0.0629 | -1.3352 kcal/mol | -12.37 | −154.9 | 98.3 ± 2.4 | 94.1 ± 2.4 | % Compound Remaining, Plasma Stability, 60 min [6]: 96.6 ± 3.4%; % Compound Remaining, Plasma Stability, 120 min [6]: 92.6 ± 2.2%; Type of inhibition, CYP3A4/5 (testosterone 6β-hydroxylation) [7]: fully non-competitive; CYP3A4/5 activity remaining (testosterone 6β-hydroxylation), % of basal activity ([7]; at 100 μM): 1%; IC50 [7]: 4.88 µM; Ki [7]: 3.94 ± 0.6 µM
